Experimental data as given in article PMC9020739, “Identification of a two-component regulatory system involved in antimicrobial peptide resistance in Streptococcus pneumoniae” (PLoS Pathogens, 2022).

Tests used:
[1] = test system: Nc1nc2c(ncn2[C@@H]2O[C@H](COP(=O)(O)OP(=O)(O)OP(=O)(O)O)[C@@H](O)[C@H]2O)c(=O)[nH]1; experiment: purified protein, by the assay type; type: biochemical, Streptococcus pneumoniae; settings: other: ATPase/GTPase activity as a function of nucleotide concentration, fitted with positive cooperativity; proteoliposomes; pH 8.0
Procedure: (§1) E. coli BL21(DE3) cells were transformed with pRSF-Duet1-BceAB WT, K48A or E170Q and selected on LB-agar plates containing 50 μg/mL kanamycin. One colony was inoculated into in 2L-baffled flasks containing 500 mL of 2YT medium and 50 μg/mL kanamycin and grown at 37°C, 180 rpm to OD600 of 0.6. Protein expression was induced by adding IPTG to a final concentration of 1 mM. Induction was performed overnight at 25°C and cells were harvested by centrifugation at 7,000 g for 20 min.
(§2) Cells were resuspended in buffer A (HEPES-NaOH 100 mM pH 8.0, NaCl 150 mM) and lysed by passaging them three times through a cell disruptor (Microfluidizer, Microfluidics) at 18,000 psi (or 1,24 x 108 Pa). Undisrupted cells and cell debris were removed by centrifugation at 15,000 x g for 30 min at 4°C. Membranes were harvested from the supernatant after ultracentrifugation at 150,000 x g for 1 h at 4°C. Membranes were resuspended in 20 mL of buffer A and centrifuged once again at 150,000 x g for 1 h at 4°C. Membrane pellets were homogenized in buffer HEPES-NaOH 100 mM pH 8.0, NaCl 150 mM and 20% glycerol, and stored at -80°C.
(§3) For the purification of BceAB, membranes from 0,5 L cell culture were diluted in buffer B (100 mM d’HEPES-NaOH pH 8, 150 mM NaCl, 10% glycerol) to a protein concentration of 4 mg/mL and solubilized with 0.5% (w/v) LMNG for 2 h at 4°C. After ultracentrifugation at 150,000 x g for 1 h at 4°C, the supernatant containing solubilized proteins was diluted four times using buffer B and loaded on Ni^2+-charged immobilized metal-ion affinity chromatography (IMAC) column (1 mL HisTrap HP, Cytiva). The column was washed with 10 mL of buffer B containing 0.005% (w/v) LMNG and 20 mM of imidazole. The column was further washed with the same buffer until OD280nm reached basal levels. BceAB was eluted by buffer B containing 0.005% (w/v) LMNG and an imidazole gradient from 20 to 500 mM of imidazole. Purified BceAB was dialyzed into buffer B containing 0.005% (w/v) LMNG and stored at -80°C.
(§4) The proteoliposomes were prepared as previously described for the transporter BmrA [50]. Proteoliposomes were loaded on sucrose gradient with different layers of 400 μL of 50 mM HEPES-KOH pH 8.0 buffer containing 30, 20, 15 or 10% of sucrose. One mL of proteoliposomes was loaded on the top of the sucrose gradient and ultra-centrifuged at 200,000 x g for 12 h at 4°C. Proteoliposomes were typically collected from the 15% layer and were loaded on SDS-PAGE to analyze and quantify the presence of BceAB by using a standard-curve of purified BceAB and ImageJ.
(§5) These activities were performed as previously described.

[2] = test system: Nc1ncnc2c1ncn2[C@@H]1O[C@H](COP(=O)(O)OP(=O)(O)OP(=O)(O)O)[C@@H](O)[C@H]1O; experiment: purified protein, by the assay type; type: biochemical, Streptococcus pneumoniae; settings: other: ATPase/GTPase activity as a function of nucleotide concentration, fitted with positive cooperativity; proteoliposomes; pH 8.0
Procedure: as §1, §2, §3, §4, §5

[3] = test system: S. pneumoniae R6 WT and mutant strains; experiment: Susceptibility to HNP-1 (colony counts); type: cell-based, Streptococcus pneumoniae; settings: R6 WT versus mutant strains, 5, 10 or 20 μg/ml, 30 min, 1 h or 2 h, 37°C, preliminary work (S7 Fig)
Procedure: Bacterial cells were routinely grown until OD600nm = 0.3 in THY and 5 mL of culture were centrifuged for 10 min at 5,000 g at 4°C. The pellet was resuspended in 5 ml of sterile PBS buffer and diluted twice at 1/100. 200 μl of the final dilution was incubated for 30 min, 1 h or 2 h at 37°C, 5% CO2 in 96-well plate with 5, 10 or 20 μg/ml of hNP1. Next, 10 μl from the final dilution (control cells at time zero in the absence of HNP-1) and the 96-well plate (cells incubated with HNP1) were plated onto pre-cast THY-agar medium supplemented with 4% defibrinated horse blood and incubated overnight at 37°C, […]. The next day, colonies were counted.

S. pneumoniae D39 WT = type: cell-based, Streptococcus pneumoniae; settings: D39 strain; for Minimum Inhibitory Concentration, WT: 2-fold broth dilution, Todd-Hewitt medium, 37°C, 15 h, two to four biological replicates, each technical duplicates; for Fold sensitivity diplayed by the KO strains: KO strains versus WT MIC
Procedure: (§6) The MIC of various antimicrobial peptides for R6, R800 and D39 strains was determined by classical 2-fold broth dilution method. Cells were first grown in Todd-Hewitt medium at 37°C without agitation and in anaerobic conditions until the absorbance reaches approximatively 0.3. Complementation strains were grown with 0.5 μM ComS inducer until the appropriate OD. Cells were then diluted at final OD600nm = 0.002 in 96-well plates containing 300 μL of Todd-Hewitt medium (and 2 μM ComS inducer for the complementation strains) with serial dilutions of antimicrobial peptides. Pneumococcal growth was monitored by a microplate reader (TECAN) at 37°C without agitation. The absorbance was followed at 600 nm every 15 min for 15 h.

[4] = test system: S. pneumoniae D39 ΔbceAB/tcs01; type: cell-based, Streptococcus pneumoniae; settings: D39 strain; 2-fold broth dilution, Todd-Hewitt medium, 37°C, 15 h; two to four biological replicates, each technical duplicates
Procedure: as §6

S. pneumoniae D39 ΔbceAB = type: cell-based, Streptococcus pneumoniae; settings: D39 strain; 2-fold broth dilution, Todd-Hewitt medium, 37°C, 15 h; two to four biological replicates, each technical duplicates
Procedure: as §6

S. pneumoniae D39 Δtcs01 = type: cell-based, Streptococcus pneumoniae; settings: D39 strain; 2-fold broth dilution, Todd-Hewitt medium, 37°C, 15 h; two to four biological replicates, each technical duplicates
Procedure: as §6

S. pneumoniae R6 WT = type: cell-based, Streptococcus pneumoniae; settings: R6 strain; for Minimum Inhibitory Concentration, WT: 2-fold broth dilution, Todd-Hewitt medium, 96-well plates, start OD600 0.002, 37°C, A600 followed 15 h, two to four biological replicates, each technical duplicates; for Fold sensitivity displayed by the KO strains: KO strains versus WT MIC
Procedure: as §6

[5] = test system: S. pneumoniae R6 ΔbceAB/tcs01; type: cell-based, Streptococcus pneumoniae; settings: R6 strain; 2-fold broth dilution, Todd-Hewitt medium, 37°C, 15 h; two to four biological replicates, each technical duplicates
Procedure: as §6

S. pneumoniae R6 ΔbceAB = type: cell-based, Streptococcus pneumoniae; settings: R6 strain; 2-fold broth dilution, Todd-Hewitt medium, 37°C, 15 h; two to four biological replicates, each technical duplicates
Procedure: as §6

S. pneumoniae R6 Δtcs01 = type: cell-based, Streptococcus pneumoniae; settings: R6 strain; 2-fold broth dilution, Todd-Hewitt medium, 37°C, 15 h; two to four biological replicates, each technical duplicates
Procedure: as §6

S. pneumoniae R800 WT = type: cell-based, Streptococcus pneumoniae; settings: R800 strain; 2-fold broth dilution, Todd-Hewitt medium, 37°C, 15 h; at least biological triplicates, each technical duplicates
Procedure: as §6

[6] = test system: S. pneumoniae R800 bceAB-gfp; type: cell-based, Streptococcus pneumoniae; settings: R800 strain; 2-fold broth dilution, Todd-Hewitt medium, 37°C, 15 h; at least biological triplicates, each technical duplicates
Procedure: as §6

[7] = test system: S. pneumoniae R800 ΔbceAB-Δhk01-PcomX-hk01; type: cell-based, Streptococcus pneumoniae; settings: R800 complementation strain, 2 μM ComS inducer; 2-fold broth dilution, Todd-Hewitt medium, 37°C, 15 h; at least biological triplicates, each technical duplicates
Procedure: as §6

[8] = test system: S. pneumoniae R800 ΔbceAB; type: cell-based, Streptococcus pneumoniae; settings: R800 strain; 2-fold broth dilution, Todd-Hewitt medium, 37°C, 15 h; at least biological triplicates, each technical duplicates
Procedure: as §6

[9] = test system: S. pneumoniae R800 Δhk01-PcomX-hk01; type: cell-based, Streptococcus pneumoniae; settings: R800 complementation strain, 2 μM ComS inducer; 2-fold broth dilution, Todd-Hewitt medium, 37°C, 15 h; at least biological triplicates, each technical duplicates
Procedure: as §6

S. pneumoniae R800 Δhk01 = type: cell-based, Streptococcus pneumoniae; settings: R800 strain; 2-fold broth dilution, Todd-Hewitt medium, 37°C, 15 h; at least biological triplicates, each technical duplicates
Procedure: as §6

[10] = target: BceAB transporter from S. pneumoniae (Streptococcus pneumoniae, UniProt A0A0H2ZN40); type: biochemical; settings: BceAB proteoliposomes; Fig 7B; triplicates, representative of at least two experiments
Procedure: as §1, §2, §3, §4, §5

Substance	Km [1] [µM]	Km [2] [µM]	Resistance promoted by BceAB [3]	Minimum Inhibitory Concentration, WT (S. pneumoniae D39 WT) [µg/mL]	Fold sensitivity diplayed by the KO strains (S. pneumoniae D39 WT)	Minimum Inhibitory Concentration, ΔbceAB/tcs01 [4] [µg/mL]	Minimum Inhibitory Concentration, ΔbceAB (S. pneumoniae D39 ΔbceAB) [µg/mL]	Minimum Inhibitory Concentration, Δtcs01 (S. pneumoniae D39 Δtcs01) [µg/mL]	Minimum Inhibitory Concentration, WT (S. pneumoniae R6 WT) [µg/mL]	Fold sensitivity displayed by the KO strains (S. pneumoniae R6 WT)	Minimum Inhibitory Concentration, ΔbceAB/tcs01 [5] [µg/mL]	Minimum Inhibitory Concentration, ΔbceAB (S. pneumoniae R6 ΔbceAB) [µg/mL]	Minimum Inhibitory Concentration, Δtcs01 (S. pneumoniae R6 Δtcs01) [µg/mL]	MIC, WT (S. pneumoniae R800 WT) [µg/mL]	MIC, bceAB-gfp [6] [µg/mL]	MIC, ΔbceAB-Δhk01-PcomX-hk01 [7] [µg/mL]	MIC, ΔbceAB [8] [µg/mL]	MIC, Δhk01-PcomX-hk01 [9] [µg/mL]	MIC, Δhk01 (S. pneumoniae R800 Δhk01) [µg/mL]	Effect on ATPase activity of BceAB [10]
BceAB transporter from S. pneumoniae (Streptococcus pneumoniae D39)	1300	1000																		
HNP1: human neutrophil defensin HNP1; purchased from Vivitide			does not promote resistance																	
actagardin				32	16	2	2	2	32	16	2	2	2	32	32	4	4	32	4	
ramoplanin				0.03	1	0.03	0.03	0.03	0.02	1	0.02	0.02	0.02	0.02	0.02	0.02	0.02	0.02	0.02	clear inhibitory effect
